# Results reported in ChEMBL document CHEMBL1201862, “PubChem BioAssay data set” (2004).
# Calls of active or inactive are those of the source.
# Key:
# [1] = target: T1, DNA repair and recombination protein RAD54-like (Homo sapiens, UniProt Q92698); experiment: RAD54 Holliday junction migration blockers – biochemical, fluorescence, cherry-picked samples, dose series, confirmation (AID 651657); format: functional
# T1 sequence (Q92698 whole entry): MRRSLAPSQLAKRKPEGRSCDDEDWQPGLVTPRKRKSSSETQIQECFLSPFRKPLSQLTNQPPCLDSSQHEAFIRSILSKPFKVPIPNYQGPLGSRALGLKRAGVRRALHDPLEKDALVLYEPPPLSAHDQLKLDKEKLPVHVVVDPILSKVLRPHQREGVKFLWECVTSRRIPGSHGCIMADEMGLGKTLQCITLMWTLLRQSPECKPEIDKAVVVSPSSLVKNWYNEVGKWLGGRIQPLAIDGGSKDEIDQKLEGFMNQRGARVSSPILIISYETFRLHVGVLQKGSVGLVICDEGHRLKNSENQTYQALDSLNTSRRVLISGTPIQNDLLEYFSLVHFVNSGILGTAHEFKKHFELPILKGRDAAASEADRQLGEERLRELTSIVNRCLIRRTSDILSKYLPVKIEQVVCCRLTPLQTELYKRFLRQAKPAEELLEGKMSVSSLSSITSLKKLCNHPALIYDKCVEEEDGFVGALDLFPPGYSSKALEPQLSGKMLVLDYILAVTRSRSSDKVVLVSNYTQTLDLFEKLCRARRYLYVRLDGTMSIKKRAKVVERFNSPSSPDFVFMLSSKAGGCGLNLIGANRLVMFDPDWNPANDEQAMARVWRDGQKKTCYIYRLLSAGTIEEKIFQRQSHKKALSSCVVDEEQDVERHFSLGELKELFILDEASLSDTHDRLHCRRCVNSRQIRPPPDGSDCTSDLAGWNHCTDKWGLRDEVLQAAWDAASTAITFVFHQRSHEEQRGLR
# Cytochrome P450 2C19 = Cytochrome P450 2C19 (Homo sapiens, UniProt P33261); experiment: Cytochrome panel assay with activity outcomes. Panel member name: p450-cyp2c19 Compounds with AC50 equal or less than 10 uM are considered active; format: functional
# Cytochrome P450 2C19, sequence (P33261 whole entry): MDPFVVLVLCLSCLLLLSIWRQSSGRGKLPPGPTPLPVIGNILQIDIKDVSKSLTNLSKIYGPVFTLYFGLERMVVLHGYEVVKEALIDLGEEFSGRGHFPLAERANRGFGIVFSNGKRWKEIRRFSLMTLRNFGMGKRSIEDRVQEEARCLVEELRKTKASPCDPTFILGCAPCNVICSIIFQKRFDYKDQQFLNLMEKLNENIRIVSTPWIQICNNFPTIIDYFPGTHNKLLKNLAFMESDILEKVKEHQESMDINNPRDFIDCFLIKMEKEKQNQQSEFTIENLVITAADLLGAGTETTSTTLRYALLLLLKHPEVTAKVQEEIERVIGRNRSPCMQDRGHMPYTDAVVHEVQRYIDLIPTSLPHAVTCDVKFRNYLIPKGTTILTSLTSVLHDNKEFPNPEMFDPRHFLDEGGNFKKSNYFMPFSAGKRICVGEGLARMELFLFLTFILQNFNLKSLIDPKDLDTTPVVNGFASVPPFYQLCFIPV
# Cytochrome P450 1A2 = target: T2, Cytochrome P450 1A2 (Homo sapiens, UniProt P05177);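 further: PubChem cytochrome P450 panel assay, CYP1A2 panel member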
# T2 sequence (P05177 whole entry): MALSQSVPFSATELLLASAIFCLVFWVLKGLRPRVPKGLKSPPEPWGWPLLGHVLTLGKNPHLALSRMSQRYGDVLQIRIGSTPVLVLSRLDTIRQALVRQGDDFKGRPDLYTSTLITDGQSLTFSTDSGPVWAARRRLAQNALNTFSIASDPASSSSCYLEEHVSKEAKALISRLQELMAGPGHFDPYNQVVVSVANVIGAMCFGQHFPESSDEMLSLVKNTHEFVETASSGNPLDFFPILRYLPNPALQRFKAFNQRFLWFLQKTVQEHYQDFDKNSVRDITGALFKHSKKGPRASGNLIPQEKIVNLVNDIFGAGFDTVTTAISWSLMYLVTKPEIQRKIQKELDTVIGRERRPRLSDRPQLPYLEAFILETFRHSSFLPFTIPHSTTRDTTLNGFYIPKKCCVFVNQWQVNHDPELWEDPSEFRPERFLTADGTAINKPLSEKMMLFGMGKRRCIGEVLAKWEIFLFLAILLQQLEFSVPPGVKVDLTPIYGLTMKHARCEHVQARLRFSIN
# Cytochrome P450 2C9 = Cytochrome P450 2C9 (Homo sapiens, UniProt P11712)
# Cytochrome P450 2C9, sequence (P11712 whole entry): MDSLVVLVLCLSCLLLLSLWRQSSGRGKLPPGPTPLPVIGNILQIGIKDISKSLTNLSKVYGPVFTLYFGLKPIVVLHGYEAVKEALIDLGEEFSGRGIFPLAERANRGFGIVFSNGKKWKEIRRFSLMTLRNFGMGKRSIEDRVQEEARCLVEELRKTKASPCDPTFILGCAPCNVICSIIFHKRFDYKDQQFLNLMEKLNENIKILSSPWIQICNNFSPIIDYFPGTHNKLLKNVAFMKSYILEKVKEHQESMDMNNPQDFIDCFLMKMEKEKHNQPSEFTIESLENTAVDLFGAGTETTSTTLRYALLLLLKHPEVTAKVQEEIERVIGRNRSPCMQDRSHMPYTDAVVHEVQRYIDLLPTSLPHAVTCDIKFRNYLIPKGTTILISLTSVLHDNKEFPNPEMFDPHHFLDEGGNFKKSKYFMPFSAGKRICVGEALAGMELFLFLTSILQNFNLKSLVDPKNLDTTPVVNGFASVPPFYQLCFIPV
# [2] = viability of PTEN-deleted HCT116 cells – cell-based, HCT116 PTEN knockout, dose response (AID 1047); format: functional;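 further: HCT116 colon tumor cells with PTEN knocked out; cells exposed to compound for 60 hours before readout; potency for loss of cell viability measured by luminescence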
# [3] = viability of HCT116 lacking mutant beta-catenin – cell-based, human colon tumor, dose response (AID 1045); format: functional;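 further: HCT116 colon tumor cells with beta catenin knocked out; cells exposed to compound for 60 hours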
# [4] = Trypanosoma cruzi growth suppression in host cells – NIH3T3 host cells, beta-gal luminescence, confirmation (AID 2044); format: functional, cell-based;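 further: intracellular parasites grown in NIH/3T3 mouse fibroblasts as host cells; luminescent beta-galactosidase reporter signal from transgenic T. cruzi replicating inside host cells; inhibitors lower the luminescence signal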
# [5] = NIH3T3 cell viability loss – ATP luminescence, mouse fibroblasts, counter-screen, dose response (AID 2010); format: functional, cell-based;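 further: cells exposed to compound for about 90 hours before reading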
# Protein skinhead-1 = target: T3, Protein skinhead-1 (Caenorhabditis elegans, UniProt P34707); format: functional
# T3 sequence (P34707 whole entry): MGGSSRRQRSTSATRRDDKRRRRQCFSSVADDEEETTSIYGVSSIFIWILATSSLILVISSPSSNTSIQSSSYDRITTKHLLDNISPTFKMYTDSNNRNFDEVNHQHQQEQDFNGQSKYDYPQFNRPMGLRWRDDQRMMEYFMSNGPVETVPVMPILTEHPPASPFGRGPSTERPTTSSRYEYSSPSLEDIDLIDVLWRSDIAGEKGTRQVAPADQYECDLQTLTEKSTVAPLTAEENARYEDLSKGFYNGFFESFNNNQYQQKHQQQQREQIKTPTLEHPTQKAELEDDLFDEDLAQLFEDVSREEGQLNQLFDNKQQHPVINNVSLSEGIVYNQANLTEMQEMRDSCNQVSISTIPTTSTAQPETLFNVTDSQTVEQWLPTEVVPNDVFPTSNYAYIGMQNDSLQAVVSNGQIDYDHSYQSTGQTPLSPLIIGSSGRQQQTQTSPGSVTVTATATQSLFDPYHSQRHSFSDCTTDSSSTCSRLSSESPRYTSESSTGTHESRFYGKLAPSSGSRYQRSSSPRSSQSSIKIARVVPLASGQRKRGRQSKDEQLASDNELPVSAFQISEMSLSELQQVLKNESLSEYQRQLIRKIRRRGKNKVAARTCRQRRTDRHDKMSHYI
# [6] = target: T4, DNA repair protein RAD52 homolog (Homo sapiens, UniProt P43351); format: functional, biochemical
# T4 sequence (P43351 whole entry): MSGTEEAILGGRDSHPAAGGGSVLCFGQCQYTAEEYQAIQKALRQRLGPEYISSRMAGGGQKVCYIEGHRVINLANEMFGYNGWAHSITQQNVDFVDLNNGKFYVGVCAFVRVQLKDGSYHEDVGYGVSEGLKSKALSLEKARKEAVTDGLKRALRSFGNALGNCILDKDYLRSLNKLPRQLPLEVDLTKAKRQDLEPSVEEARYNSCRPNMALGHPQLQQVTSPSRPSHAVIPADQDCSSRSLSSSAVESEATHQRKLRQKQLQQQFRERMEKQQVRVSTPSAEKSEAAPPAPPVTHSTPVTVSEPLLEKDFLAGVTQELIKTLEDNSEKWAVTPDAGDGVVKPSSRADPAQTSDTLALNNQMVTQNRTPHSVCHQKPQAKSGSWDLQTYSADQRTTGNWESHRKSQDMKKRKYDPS
# Paired box protein Pax-8 = Paired box protein Pax-8 (Homo sapiens, UniProt Q06710); experiment: PAX8 transcriptional activity inhibition in RMG-I – RMG-I cells, luciferase, cherry-pick, dose response (AID 687027); format: functional, cell-based;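 further: luciferase reporter driven by Pax8 target thyroperoxidase promoter measured by SteadyGlo luminescence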
# Paired box protein Pax-8, sequence (Q06710 whole entry): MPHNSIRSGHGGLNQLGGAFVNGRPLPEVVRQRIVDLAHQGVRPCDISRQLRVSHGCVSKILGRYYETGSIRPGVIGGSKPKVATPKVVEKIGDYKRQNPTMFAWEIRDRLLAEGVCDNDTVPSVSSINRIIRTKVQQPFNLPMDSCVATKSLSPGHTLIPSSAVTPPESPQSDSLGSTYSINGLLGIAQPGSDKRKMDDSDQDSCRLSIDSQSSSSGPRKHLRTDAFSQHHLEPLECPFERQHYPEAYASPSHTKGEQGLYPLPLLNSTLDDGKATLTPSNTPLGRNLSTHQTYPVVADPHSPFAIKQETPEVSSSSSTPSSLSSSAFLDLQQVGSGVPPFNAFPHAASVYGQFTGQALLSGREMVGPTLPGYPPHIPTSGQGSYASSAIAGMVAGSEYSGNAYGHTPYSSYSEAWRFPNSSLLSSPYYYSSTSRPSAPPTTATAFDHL
# [7] = OVCAR-3 cell viability loss – plate reader, dry powder samples, PAX8 inhibitor project, dose response (AID 743044); format: functional, cell-based
# [8] = IGROV1 cell killing – plate reader, dry powder samples, PAX8 inhibitor project, dose response (AID 743043); format: functional, cell-based; conditions: IGROV-1
# [9] = OVCAR8 cell viability loss – plate reader, dry powder samples, PAX8 project, dose response (AID 743197); format: functional, cell-based; conditions: OVCAR-8
# Nonstructural protein 1 = Nonstructural protein 1 (Influenza A virus, UniProt Q194T2); format: functional, Influenza A virus (A/California/07/2009(H1N1))
# Nonstructural protein 1, sequence (Q194T2 whole entry): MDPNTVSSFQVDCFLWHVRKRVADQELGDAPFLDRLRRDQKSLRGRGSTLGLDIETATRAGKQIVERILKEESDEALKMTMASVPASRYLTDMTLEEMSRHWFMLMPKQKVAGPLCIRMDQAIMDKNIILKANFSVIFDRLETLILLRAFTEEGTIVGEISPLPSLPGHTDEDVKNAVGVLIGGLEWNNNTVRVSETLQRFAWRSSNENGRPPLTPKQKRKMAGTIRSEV
# [10] = target: T5, Histone-lysine N-methyltransferase NSD2 (Homo sapiens, UniProt O96028); format: biochemical
# T5 sequence (O96028 whole entry): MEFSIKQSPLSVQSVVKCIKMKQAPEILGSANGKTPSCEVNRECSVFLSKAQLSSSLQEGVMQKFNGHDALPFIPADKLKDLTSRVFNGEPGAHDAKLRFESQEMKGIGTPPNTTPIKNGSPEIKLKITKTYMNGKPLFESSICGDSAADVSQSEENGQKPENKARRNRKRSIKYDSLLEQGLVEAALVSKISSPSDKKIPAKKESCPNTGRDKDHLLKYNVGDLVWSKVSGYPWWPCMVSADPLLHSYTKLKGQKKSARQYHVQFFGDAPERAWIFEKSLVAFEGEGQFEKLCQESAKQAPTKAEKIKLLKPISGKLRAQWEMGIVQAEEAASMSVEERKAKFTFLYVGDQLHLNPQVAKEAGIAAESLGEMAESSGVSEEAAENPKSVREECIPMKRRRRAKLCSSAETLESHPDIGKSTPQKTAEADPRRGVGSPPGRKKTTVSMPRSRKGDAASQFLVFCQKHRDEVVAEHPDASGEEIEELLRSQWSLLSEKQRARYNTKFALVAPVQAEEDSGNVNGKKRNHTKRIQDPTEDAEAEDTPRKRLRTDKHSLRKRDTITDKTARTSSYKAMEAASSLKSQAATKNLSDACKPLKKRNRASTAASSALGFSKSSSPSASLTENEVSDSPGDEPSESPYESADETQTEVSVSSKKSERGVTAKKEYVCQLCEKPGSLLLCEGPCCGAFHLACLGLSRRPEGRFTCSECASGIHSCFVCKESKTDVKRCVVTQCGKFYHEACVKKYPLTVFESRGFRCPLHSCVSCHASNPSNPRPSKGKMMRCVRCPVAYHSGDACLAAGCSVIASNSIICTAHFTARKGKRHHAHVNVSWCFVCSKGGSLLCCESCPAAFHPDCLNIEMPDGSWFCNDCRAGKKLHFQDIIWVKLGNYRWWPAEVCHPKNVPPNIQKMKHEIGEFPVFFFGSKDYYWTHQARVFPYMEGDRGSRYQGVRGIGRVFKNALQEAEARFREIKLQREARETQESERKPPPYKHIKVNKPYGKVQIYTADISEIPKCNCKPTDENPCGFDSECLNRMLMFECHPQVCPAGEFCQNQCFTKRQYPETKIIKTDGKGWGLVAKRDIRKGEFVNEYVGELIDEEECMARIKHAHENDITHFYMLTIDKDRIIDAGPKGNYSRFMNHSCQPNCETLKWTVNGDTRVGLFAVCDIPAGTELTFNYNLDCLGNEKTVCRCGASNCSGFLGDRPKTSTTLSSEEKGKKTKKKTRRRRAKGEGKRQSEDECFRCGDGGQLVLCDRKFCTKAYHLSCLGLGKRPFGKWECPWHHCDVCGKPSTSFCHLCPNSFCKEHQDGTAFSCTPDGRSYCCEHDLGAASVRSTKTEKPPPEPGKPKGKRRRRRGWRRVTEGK
# [11] = target: T6, Mannose-6-phosphate isomerase (Homo sapiens, UniProt P34949); experiment: MPI inhibition at elevated mannose 6-phosphate – biochemical, fluorescence intensity, high mannose 6-phosphate, primary screen (AID 1220)
# T6 sequence (P34949 whole entry): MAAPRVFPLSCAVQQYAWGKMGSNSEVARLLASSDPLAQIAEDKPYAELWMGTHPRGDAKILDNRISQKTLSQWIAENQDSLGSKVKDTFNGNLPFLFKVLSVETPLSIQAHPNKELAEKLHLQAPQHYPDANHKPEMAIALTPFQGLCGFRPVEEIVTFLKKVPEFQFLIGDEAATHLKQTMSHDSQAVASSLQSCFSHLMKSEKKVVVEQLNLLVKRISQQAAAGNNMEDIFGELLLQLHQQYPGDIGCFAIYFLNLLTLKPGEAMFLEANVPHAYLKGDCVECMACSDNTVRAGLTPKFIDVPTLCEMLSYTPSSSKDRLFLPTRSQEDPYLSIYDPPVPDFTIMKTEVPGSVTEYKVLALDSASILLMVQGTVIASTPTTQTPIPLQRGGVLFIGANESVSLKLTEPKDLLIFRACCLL
smiles,measurement,setting,value
CN1CCN(c2nc(-c3cccc([N+](=O)[O-])c3)nc3ccccc23)CC1,AC50,[1],7.36 µM (active)
COc1ncc2nc(C)c(=O)n(CCC#N)c2n1,AC50,Cytochrome P450 2C19,inconclusive
same,AC50,Cytochrome P450 1A2,15.8 µM (inconclusive)
same,AC50,Cytochrome P450 2C9,inconclusive
NCc1csc(Nc2nncc3ccccc23)n1,AC50,[1],23.7 µM (active)
CCN(CC)CCNC(=O)c1cc2c(-c3ccc(Cl)cc3)nn(C)c2s1,EC50,[2],5.5 µM (active)
same,EC50,[3],4.09 µM (active)
same,AC50,[1],6.7 µM (active)
COc1ccc(-c2nn(-c3ccccc3)cc2C(=O)N/N=C/c2ccc([N+](=O)[O-])o2)cc1,EC50,[4],< 0.1 µM (active)
same,EC50,[5],> 60 µM (not active)
same,EC50,cells,0.038 µM (active)
CCN(CC)S(=O)(=O)c1cccc2c(N(C)C)cccc12,IC50,Protein skinhead-1,> 100 µM (inactive)
same,AC50,Cytochrome P450 2C9,inconclusive
COc1cccc2sc3cc(NCCCN4CCOCC4)ccc3c(=O)c12,AC50,[1],10.6 µM (active)
same,AC50,[6],5.68 µM (active)
C[C@@H]1CCCCO[C@@H](CN(C)Cc2ccc3c(c2)OCO3)[C@@H](C)CN([C@@H](C)CO)C(=O)c2cc(NC(=O)Nc3ccc(C(F)(F)F)cc3)ccc2O1,AC50,Paired box protein Pax-8,8.56 µM (active)
same,AC50,[7],40.3 µM (active)
same,AC50,[8],37.4 µM (active)
same,AC50,[9],44 µM (active)
CCOc1ccc(NC2=C(OC)C(=O)c3ccccc3C2=O)cc1,IC50,Nonstructural protein 1,7.02 µM (active)
same,AC50,[10],6.18 µM (active)
O=c1cc(O)c2sc(Nc3cccc(C(F)(F)F)c3)nc2[nH]1,IC50,[11],> 50 µM (not active)
C[C@@H]1CCCCO[C@@H](CN(C)C(=O)Nc2ccc(F)cc2)[C@H](C)CN([C@H](C)CO)C(=O)c2cc(NS(=O)(=O)c3ccc(Cl)cc3)ccc2O1,AC50,Paired box protein Pax-8,6.23 µM (active)
same,AC50,[8],53 µM (active)
same,AC50,[9],> 70 µM (inactive)
O=C1C(=O)C(Cl)=C(Cl)C(Cl)=C1Cl,AC50,[10],11.2 µM (active)
Cn1cc(CN2CCCC(CNC(=O)c3ccc4c(c3)OCO4)C2)c2ccccc21 (stereo not given),EC50,[4],< 0.1 µM (active)
same,EC50,[5],> 60 µM (not active)
same,EC50,cells,0.064 µM (active)
CCN(CC)CCNS(=O)(=O)c1ccc2c3c(cccc13)C(=O)N2,AC50,[10],> 20 µM (inactive)
